In assay [1] the test system is PAR-2. The experiment in a line: Inhibition of PAR-2 activating peptide (AP2) calcium signaling in cells pretreated with antagonist. Also noted: key to PAR-2 AP2 Signaling Treated/Control (T/C) / PAR-2 AP2 Signaling Treated/Control: AUC of calcium mobilization, treated ÷ control wells. Type of assay: cell-based, human. Conditions: for PAR-2 antagonist activity in vitro (in words): pretreated cells, then P2AP; for PAR-2 AP2 Signaling Treated/Control (T/C): peptides. In outline:
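LLC cells loaded with Fluo-4 (4 uM final), and U87-MG glioma cells loaded with FLIPR Calcium 3 dye with 2.5 mM probenecid, were pretreated with antagonist, then stimulated with PAR-2 activating peptide. Initial screening was at 1 mM. Calcium AUC of treated over control wells is reported as T/C.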

Another assay concerns the target T1, PAR-1 (Homo sapiens, UniProt P25116).
T1 construct: endogenous in cells
T1 sequence (P25116 22-425): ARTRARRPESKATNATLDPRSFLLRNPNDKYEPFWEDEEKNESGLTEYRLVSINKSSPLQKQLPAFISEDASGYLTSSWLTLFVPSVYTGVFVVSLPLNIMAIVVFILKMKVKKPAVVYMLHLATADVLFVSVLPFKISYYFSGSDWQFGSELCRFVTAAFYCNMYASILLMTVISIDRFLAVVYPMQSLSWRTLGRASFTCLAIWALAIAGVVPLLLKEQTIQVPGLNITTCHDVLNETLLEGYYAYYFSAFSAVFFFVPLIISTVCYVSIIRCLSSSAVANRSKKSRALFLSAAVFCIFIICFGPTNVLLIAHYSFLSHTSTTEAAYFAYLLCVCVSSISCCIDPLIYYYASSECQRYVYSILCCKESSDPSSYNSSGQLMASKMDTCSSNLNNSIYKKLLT
The experiment in a line: Inhibition of PAR-1 activation peptide (SFLLRN) calcium signaling in pretreated cells. It counts as cell-based. The conditions noted are these: cells pretreated with antagonist. As for the experimental part: (§1) In order to assess the potential of peptides and molecules selected above to block PAR-2 signaling, cells were pretreated with potential antagonist peptides for a predetermined amount of time and were subsequently treated with various GPCR agonists. Confluent Lewis lung carcinoma (LLC) cells were loaded for 30-60 minutes with the fluorescent dye Fluo-4. Final concentration 4 uM Fluo-4, 0.02% pluronic acid in physiological buffer. Cells were then washed with assay buffer, (HBSS containing 1 mM CaCl2, 1 mM MgSO4, and 2.5 mM probenecid). Cells were stimulated with various doses of PAR-2 activating peptide, PAR-1 activating peptide or ATP. Fluorescence was monitored using a Wallac 1470 fluorescent plate reader. (See Al-ani et. al Journal of Pharmacology and Experimental Therapeutics 290:2, 753-760). Additional compound screening was performed using U87-MG human glioma cells. In this assay cells were labeled with FLIPR Calcium 3 dye (Component A), which was dissolved in 10 mls of Assay Buffer without Probenecid. Loading buffer was prepared by diluting Component A with an additional 90 mls of Assay Buffer without Probenecid, giving a total volume of a 100 ml. […] Calcium signaling was then measured using a Flexstation II (Molecular Devices) following manufacturer's instructions. […]

The subject of a further assay is ATP signaling. The experiment in a line: Inhibition of ATP calcium signaling in pretreated cells. It counts as cell-based. Conditions: cells pretreated with antagonist. As for the experimental part: as §1
The subject of a further assay is BALB/c mice, arthritis. Nature of the assay: Anti-collagen II antibody/LPS arthritis in mice (hind feet thickness). It counts as in vivo, mouse. The conditions noted are these: 200 mg/kg/day intraperitoneally for 7 days. Here is the method:
On day 0, BALB/c mice were injected intravenously with the 1-2 mg 1B11 monoclonal anti-collagen II antibody. On day 1, animals were injected intraperitoneally with 20 μg LPS, and treatment with PAR-2 antagonists (200 mg/kg/day, intraperitoneally) for 7 days. After treatment was completed, disease is quantified by measuring the thickness (swelling) in both hind feet of the mouse. This was compared to untreated mice (p<0.05 vs. vehicle control).

Assay [2] relates to PAR-2. The experiment in a line: PAR signalling activity: calcium mobilization (Fluo-4) in response to peptide. Type of assay: cell-based. The conditions noted are these: FIGS. 2A-2C. As for the experimental part: Confluent HUVECs, Lewis lung carcinoma cells or U87-MG glioma cells or HT29 colon carcinoma cells were loaded for 30-60 minutes with the fluorescent dye Fluo-4. Final concentration 4 uM Fluo-4, 0.02% pluronic acid in physiological buffer. Cells were then washed with assay buffer, (HBSS containing 1 mM CaCl2, 1 mM MgSO4, and 2.5 mM probenecid). Cells were stimulated with various doses of PAR-2 activating peptide, PAR-1 activating peptide or ATP. Fluorescence was monitored using a Wallac 1470 fluorescent plate reader. (See Al-ani et. al Journal of Pharmacology and Experimental Therapeutics 290:2, 753-760)
Calcium mobilization curves of the PAR-2 agonist SLIGKV (ENMD-1003) (SEQ ID NO:52) compared with two truncated molecules LIGK (ENMD-1005) (SEQ ID NO:1) and LIGKV (ENMD-1007) (SEQ ID NO:2) are provided in FIG. 2A. […] Similar studies were performed on alanine substituted SLIGKV (ENMD-1003) (SEQ ID NO:52) peptides (FIGS. 2B and 2C).
On the technique in general: Calcium flux is commonly read through the fluorescence of an indicator in the cells.

Assay [3] deals with T2, PAR-2 (Mus musculus, UniProt P55086).
T2 construct: from tissue; host or cells: footpad of living C57BL6 mice
T2 sequence (P55086 26-399): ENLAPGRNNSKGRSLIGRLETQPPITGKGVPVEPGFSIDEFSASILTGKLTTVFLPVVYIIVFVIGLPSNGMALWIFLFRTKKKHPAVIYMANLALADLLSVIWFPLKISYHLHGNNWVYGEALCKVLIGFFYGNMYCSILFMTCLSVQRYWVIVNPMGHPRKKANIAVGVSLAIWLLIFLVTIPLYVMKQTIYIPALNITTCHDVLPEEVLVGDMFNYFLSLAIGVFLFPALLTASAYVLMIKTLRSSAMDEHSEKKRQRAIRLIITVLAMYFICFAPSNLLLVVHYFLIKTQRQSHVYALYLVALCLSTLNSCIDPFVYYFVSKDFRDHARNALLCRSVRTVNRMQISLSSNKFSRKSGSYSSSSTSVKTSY
The experiment in a line: PAR-2 agonist peptide induced murine footpad edema model. Type of assay: in vivo. The conditions noted are these: co-treatment in footpad, C57BL6 mice, 1 hour. Here is the method: C57BL6 mice were injected with 5-25 μg of SLIGKV (ENMD-1003) (SEQ ID NO:52) into their footpad, in the presence or absence of increasing amounts of various PAR-2 antagonists. One hour later, footpad (tarsus) thickness was measured to quantify inflammation (edema).
The inventors next assessed whether the LIGK (ENMD-1005) (SEQ ID NO:1) peptide had in vivo PAR-2 antagonistic activity. This was studied using an edema model where vascular permeability was induced by the PAR-2 agonist peptide. In this model, the PAR-2 peptide induces severe edema as previously reported (FIG. 6). This vascular response was blocked by co-treatment with the PAR-2 antagonist LIGK (ENMD-1005) (SEQ ID NO:1) (FIG. 6). Thus, LIGK (ENMD-1005) (SEQ ID NO:1) functions in vivo to block PAR-2 signaling.

For assay [4], the system named is angiogenesis in Matrigel plug, C57/BL6 mice. Nature of the assay: In vivo Matrigel angiogenesis assay (FGF-2, hemoglobin content in the plug). Conditions: subcutaneously daily for 6 days. On the set-up: species or system mouse.
For assay [5], the system named is BALB/c mice, LPS induced weight loss. The experiment in a line: Arthrogen-CIA induced body weight loss in mice. The conditions noted are these: 200 mg/kg/day intraperitoneally for 7 days. Type of assay: in vivo, mouse. As for the experimental part:
On day 0, BALB/c mice were injected i.v. with the 1-2 mg 1B11 monoclonal anti-collagen II antibody. On day 1, animals were injected intraperitoneally with 20 μg LPS, and treatment with PAR-2 antagonists (200 mg/kg/day intraperitoneally) for 7 days. After treatment was completed, disease is quantified by measuring the thickness (swelling) in both hind feet of the mouse. This was compared to untreated mice. This model results in significant weight loss associated with the administration of LPS.

The mark [6] stands for this setting: AUC of calcium mobilization treated/control, initially screened at 1 mM compound.

These results are taken from US20060063930A1, “Compositions and methods comprising proteinase activated receptor antagonists” (priority 2004, published 2006).

Where no end group is shown, it is not given here.

Consider `Br.CC(C)CC(=O)N1CCN(C(=O)CCCCCN)CC1` [ENMD-1068, 1-(4-(3-methylbutanoyl)piperazin-1-yl)-(6′-aminohexan-1-amide) hydrobromide], for which the “PAR-2 AP2 Signaling Treated/Control” value with PAR-2 [1] (mimetic antagonists, AUC of calcium mobilization treated/control, initially screened at 1 mM compound) stood at 0.58. Further, the “PAR-2 antagonist activity in vitro (in words)” value (shortened to “PAR-2 antagonist activity”) with PAR-2 [1] is “inhibitor of PAR-2 signaling in vitro”. Moreover, on PAR-1, the “Inhibitory effect on PAR-1 signaling” value was “no inhibitory effects”. Also, the “Inhibitory effect on ATP signaling” value in the assay on ATP signaling was “no inhibitory effects”. For the same compound, the “Effect on inflammation / arthritis” value in the assay on BALB/c mice, arthritis was “inhibited inflammation”.
As for LIGD [ENMD-1045], the “PAR-2 AP2 Signaling Treated/Control (T/C)” value with PAR-2 [1] (setting [6]) is 0.39.
Same read-out and setting: as for LIGE [ENMD-1046], the figure is 0.34; as for LIGH [ENMD-1054], 0.83.
In the case of LIGK [ENMD-1005], the “Calcium mobilization / PAR-2 signaling activity (in words)” value in the assay with PAR-2 [2] was “Neither truncated molecule was able to induce calcium mobilization”. Besides, the “Block of AP2 signaling” value with PAR-2 [1] (1 mM LIGK against 100 uM SLIGKV (FIG. 3)) is on record as “completely blocked”. Moreover, in the assay on PAR-2 [1] (AP2 stimulated HT29 cells (FIG. 4)), the IC50 (usually the concentration needed to halve the response being measured) is < 500 µM. Moreover, the “PAR-2 antagonist activity” value in the assay on PAR-2 [1] is on record as “demonstrated antagonist activity”. The “Inhibitory effect on PAR-1 signaling” value at PAR-1 is “no inhibitory effect”. In the assay with ATP signaling, the “Inhibitory effect on ATP signaling” value was “no inhibitory effect”. For the same compound, the “Effect on PAR-2 peptide induced edema (vascular response)” value at PAR-2 [3] is “blocked”. Further, the “Inhibition of angiogenesis (hemoglobin content in the plug)” value in assay [4] (highest dose) is “more than 80%”. The “Inhibition of angiogenesis (in words)” value in assay [4] was “dose dependent inhibition of angiogenesis”. In addition, in the assay with BALB/c mice, arthritis, the “Effect on inflammation / arthritis” value is recorded as “inhibited inflammation”. Also, in assay [5], the “Effect on LPS induced weight loss” value is “abrogated this LPS induced weight loss”.
Take LIGK-amide (LIGK-NH2) [ENMD-1020]: the “PAR-2 AP2 Signaling Treated/Control (T/C)” value in the assay on PAR-2 [1] (setting [6]) is 0.54.
Consider LIGKV [ENMD-1007], for which the “Calcium mobilization / PAR-2 signaling activity (in words)” value with PAR-2 [2] is given as “Neither truncated molecule was able to induce calcium mobilization”. For the same compound, in the assay on PAR-2 [1], the “PAR-2 antagonist activity” value is on record as “demonstrated antagonist activity”.
LIGM [ENMD-1064]: the “PAR-2 AP2 Signaling Treated/Control (T/C)” value with PAR-2 [1] (setting [6]) is listed as 1.19.
Still for that read-out and setting: with LIGN [ENMD-1047] the figure was 0.88.
Still for that read-out and setting: with LIGQ [ENMD-1048] the figure was 0.59; with LIGR [ENMD-1022], 0.26; with LIGS [ENMD-1049], 0.64.
Still for that read-out and setting: with LIGT [ENMD-1050] the figure was 0.70; with LIGY [ENMD-1051], 0.83; with LIPK [ENMD-1052], 0.89.
For LPGK [ENMD-1053], the “PAR-2 AP2 Signaling Treated/Control (T/C)” value in the assay with PAR-2 [1] (setting [6]) is 0.89.
Regarding SLIAKV [ENMD-1011], in the assay with PAR-2 [2], the “Calcium mobilization / PAR-2 signaling activity (in words)” value is “robust signaling activity”.
On the same count and under the same terms, with SLIGKA [ENMD-1013] the entry was “robust signaling activity”; with SLIGKV [ENMD-1003, reference compound], “typical spike of calcium release followed by degradation of signal”.
For dI-dG-dK [ENMD-1383], in the assay with PAR-2 [1] (setting [6]), the “PAR-2 AP2 Signaling Treated/Control (T/C)” value was determined as 0.48.
The same measure, in the same setting: as for dL-dI-dG-dK [ENMD-1032], the figure is 0.44.
